Results on four compounds are retold here after the supplement of paper PMC10307832.

For one test, the system named is NCI-H650. The test can be described thus: relative viability (nuclei count vs DMSO), 5 days (fraction); higher = more cells survive. As to conditions: first compound 2 µM. In a few lines: (§1)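 Values are medians from duplicate plates. Each reflects relative viability, defined as the nuclei count of treated wells over that of vehicle wells. Lung cancer cell lines in 1536-well plates were pin-tool dosed one day after seeding with one drug alone or with a fixed anchor-drug dose plus five library-drug doses (not always all listed) in √10 steps, then fixed, stained and imaged at 4× after 5 days.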
`COCC1(CO)C(=O)C2CCN1CC2` (stereo not given) [PRIMA-1MET] + CS(=O)(=O)N1CCN(Cc2cc3nc(-c4cccc5[nH]ncc45)nc(N4CCOCC4)c3s2)CC1 [Pictilisib] (partner 1 µM) returned a relative viability of 0.867.
On the same count and under the same terms, the same measure for `COCC1(CO)C(=O)C2CCN1CC2` (stereo not given) [PRIMA-1MET] + CCNC(=O)c1noc(-c2cc(C(C)C)c(O)cc2O)c1-c1ccc(CN2CCOCC2)cc1 [Luminespib] (partner 0.01 µM): 0.666; for `COCC1(CO)C(=O)C2CCN1CC2` (stereo not given) [PRIMA-1MET] + CC(=O)c1c(C)c2cnc(Nc3ccc(N4CCNCC4)cn3)nc2n(C2CCCC2)c1=O [Palbociclib] (partner 0.5 µM): 0.367; for `COCC1(CO)C(=O)C2CCN1CC2` (stereo not given) [PRIMA-1MET] + Cc1nc(Nc2ncc(C(=O)Nc3c(C)cccc3Cl)s2)cc(N2CCN(CCO)CC2)n1 [Dasatinib] (partner 0.075 µM): 0.469.

Staying with this test, now noted: first compound 6.325 µM.
Take `COCC1(CO)C(=O)C2CCN1CC2` (stereo not given) [PRIMA-1MET] + CS(=O)(=O)N1CCN(Cc2cc3nc(-c4cccc5[nH]ncc45)nc(N4CCOCC4)c3s2)CC1 [Pictilisib] (partner 1 µM): the relative viability worked out at 1.06.
Regarding `COCC1(CO)C(=O)C2CCN1CC2` (stereo not given) [PRIMA-1MET] + CCNC(=O)c1noc(-c2cc(C(C)C)c(O)cc2O)c1-c1ccc(CN2CCOCC2)cc1 [Luminespib] (partner 0.01 µM), the relative viability is 0.746.
Still for that read-out and setting: the same measure for `COCC1(CO)C(=O)C2CCN1CC2` (stereo not given) [PRIMA-1MET] + CC(=O)c1c(C)c2cnc(Nc3ccc(N4CCNCC4)cn3)nc2n(C2CCCC2)c1=O [Palbociclib] (partner 0.5 µM): 0.338; for `COCC1(CO)C(=O)C2CCN1CC2` (stereo not given) [PRIMA-1MET] + Cc1nc(Nc2ncc(C(=O)Nc3c(C)cccc3Cl)s2)cc(N2CCN(CCO)CC2)n1 [Dasatinib] (partner 0.075 µM): 0.472.

The test is the same for the next values; noted with them: first compound 20 µM.
`COCC1(CO)C(=O)C2CCN1CC2` (stereo not given) [PRIMA-1MET] + CS(=O)(=O)N1CCN(Cc2cc3nc(-c4cccc5[nH]ncc45)nc(N4CCOCC4)c3s2)CC1 [Pictilisib] (partner 1 µM) came in with a relative viability of 0.111.
The compound `COCC1(CO)C(=O)C2CCN1CC2` (stereo not given) [PRIMA-1MET] + CCNC(=O)c1noc(-c2cc(C(C)C)c(O)cc2O)c1-c1ccc(CN2CCOCC2)cc1 [Luminespib] (partner 0.01 µM) came in with a relative viability of 0.373.
`COCC1(CO)C(=O)C2CCN1CC2` (stereo not given) [PRIMA-1MET] + CC(=O)c1c(C)c2cnc(Nc3ccc(N4CCNCC4)cn3)nc2n(C2CCCC2)c1=O [Palbociclib] (partner 0.5 µM) displayed a relative viability of 0.0905.
`COCC1(CO)C(=O)C2CCN1CC2` (stereo not given) [PRIMA-1MET] + Cc1nc(Nc2ncc(C(=O)Nc3c(C)cccc3Cl)s2)cc(N2CCN(CCO)CC2)n1 [Dasatinib] (partner 0.075 µM) came in with a relative viability of 0.454.

In a further test the test system is NCI-H596. The test is described as above. As to conditions: first compound 0.2 µM. In a few lines:
as §1
On to `COCC1(CO)C(=O)C2CCN1CC2` (stereo not given) [PRIMA-1MET] + CS(=O)(=O)N1CCN(Cc2cc3nc(-c4cccc5[nH]ncc45)nc(N4CCOCC4)c3s2)CC1 [Pictilisib] (partner 1 µM), for which the relative viability was 0.406.
Same read-out and setting: with `COCC1(CO)C(=O)C2CCN1CC2` (stereo not given) [PRIMA-1MET] + CCNC(=O)c1noc(-c2cc(C(C)C)c(O)cc2O)c1-c1ccc(CN2CCOCC2)cc1 [Luminespib] (partner 0.01 µM) the figure was 0.921.
On to `COCC1(CO)C(=O)C2CCN1CC2` (stereo not given) [PRIMA-1MET] + Cc1nc(Nc2ncc(C(=O)Nc3c(C)cccc3Cl)s2)cc(N2CCN(CCO)CC2)n1 [Dasatinib] (partner 0.075 µM), for which the relative viability worked out at 0.701.

The same test, now with this note: first compound 0.6325 µM.
With `COCC1(CO)C(=O)C2CCN1CC2` (stereo not given) [PRIMA-1MET] + CS(=O)(=O)N1CCN(Cc2cc3nc(-c4cccc5[nH]ncc45)nc(N4CCOCC4)c3s2)CC1 [Pictilisib] (partner 1 µM), the relative viability was 0.389.
`COCC1(CO)C(=O)C2CCN1CC2` (stereo not given) [PRIMA-1MET] + CCNC(=O)c1noc(-c2cc(C(C)C)c(O)cc2O)c1-c1ccc(CN2CCOCC2)cc1 [Luminespib] (partner 0.01 µM) yielded a relative viability of 0.809.
Still for that read-out and setting: the same measure for `COCC1(CO)C(=O)C2CCN1CC2` (stereo not given) [PRIMA-1MET] + Cc1nc(Nc2ncc(C(=O)Nc3c(C)cccc3Cl)s2)cc(N2CCN(CCO)CC2)n1 [Dasatinib] (partner 0.075 µM): 0.563.

Still in this test, the particulars now being: first compound 2 µM.
Take `COCC1(CO)C(=O)C2CCN1CC2` (stereo not given) [PRIMA-1MET] + CS(=O)(=O)N1CCN(Cc2cc3nc(-c4cccc5[nH]ncc45)nc(N4CCOCC4)c3s2)CC1 [Pictilisib] (partner 1 µM): the relative viability was determined as 0.335.
`COCC1(CO)C(=O)C2CCN1CC2` (stereo not given) [PRIMA-1MET] + CCNC(=O)c1noc(-c2cc(C(C)C)c(O)cc2O)c1-c1ccc(CN2CCOCC2)cc1 [Luminespib] (partner 0.01 µM) displayed a relative viability of 0.858.
With `COCC1(CO)C(=O)C2CCN1CC2` (stereo not given) [PRIMA-1MET] + Cc1nc(Nc2ncc(C(=O)Nc3c(C)cccc3Cl)s2)cc(N2CCN(CCO)CC2)n1 [Dasatinib] (partner 0.075 µM), the relative viability was determined as 0.597.

The same test, now with this note: first compound 6.325 µM.
The compound `COCC1(CO)C(=O)C2CCN1CC2` (stereo not given) [PRIMA-1MET] + CS(=O)(=O)N1CCN(Cc2cc3nc(-c4cccc5[nH]ncc45)nc(N4CCOCC4)c3s2)CC1 [Pictilisib] (partner 1 µM) returned a relative viability of 0.379.
Still for that read-out and setting: with `COCC1(CO)C(=O)C2CCN1CC2` (stereo not given) [PRIMA-1MET] + CCNC(=O)c1noc(-c2cc(C(C)C)c(O)cc2O)c1-c1ccc(CN2CCOCC2)cc1 [Luminespib] (partner 0.01 µM) the figure was 0.936; with `COCC1(CO)C(=O)C2CCN1CC2` (stereo not given) [PRIMA-1MET] + Cc1nc(Nc2ncc(C(=O)Nc3c(C)cccc3Cl)s2)cc(N2CCN(CCO)CC2)n1 [Dasatinib] (partner 0.075 µM), 0.79.

The test is the same for the next values; noted with them: first compound 20 µM.
Turning to `COCC1(CO)C(=O)C2CCN1CC2` (stereo not given) [PRIMA-1MET] + CS(=O)(=O)N1CCN(Cc2cc3nc(-c4cccc5[nH]ncc45)nc(N4CCOCC4)c3s2)CC1 [Pictilisib] (partner 1 µM), the relative viability was 0.368.
